Reference: ChEMBL document CHEMBL3046386, “Cyclophosphamide analogues: synthesis, spectroscopic study, and antitumor activity of diazaphosphorinanes” (Med Chem Res, 2011)

Assays:
[1] = test system: K562; assay: Antiproliferative activity against Homo sapiens (human) K562 cells after 48 hr by MTT assay; assay type: functional, cell-based; conditions: K562, 48 h
[2] = Distribution coefficient, log D of the compound; conditions: octanol/water
[3] = Lipophilicity, log P of the compound; conditions: octanol/water

| SMILES | IC50 [1] [µM] | logD [2] | logP [3] |
| --- | --- | --- | --- |
| CC1(C)CNP(=O)(NC(=O)c2ccccc2[N+](=O)[O-])NC1 | 6.87 | -0.04 | 0.34 |
| Cc1ccc(OP2(=O)NCC(C)(C)CN2)cc1 | – | 0.73 | 1.55 |
| O=P1(N(CCCl)CCCl)NCCCO1 (stereo unspecified) [CYCLOPHOSPHAMIDE ANHYDROUS] | – | 0.05 | 1.12 |
| CC1(C)CNP(=O)(NC(=O)c2cccc([N+](=O)[O-])c2)NC1 | 5.08 | -0.03 | 0.34 |
| CC1(C)CNP(=O)(Nc2ccc(S(N)(=O)=O)cc2)NC1 | 58.2 | -1 | -0.78 |
| CC1(C)CNP(=O)(NC(=O)c2ccc([N+](=O)[O-])cc2)NC1 | 6.49 | -0.03 | 0.34 |
